Measured values taken from patent US11291660B2, “Method of treating heart failure with preserved ejection fraction by administering milrinone” (Baker Heart and Diabetes Institute, priority 2014, dated 2022).

Experiments:
HFpEF patients [1] = details: cited from earlier work
HFpEF = details: in vivo; cited from earlier work
[2] = Saturated solubility of Milrinone in different buffers; type: physicochemical; details: pH 1.2 to 7.4 buffers
Procedure: Aim: To perform the saturated solubility of Milrinone in different buffers.
1. pH 1.2—Hydrochloric Acid Buffer
3. pH 6.8—Phosphate Buffer
4. pH 7.4—Phosphate Buffer.
• 1. 2 mL buffer solution is placed into a 8 mL USP Type I clear glass vial (with screw cap and PTFE septa) • 2. 10 mg of Milrinone is added in each vial and the vial is shaken to dissolve the compound. • 3. The addition of Milrinone is continued till the formation of saturated solution. • 4. The pH of the saturated solution is measured after the addition of Milrinone. • 5. If there is any difference in pH more than 0.1 units is observed when compared to the initial pH, the pH was adjusted with acid or base respectively to bring it to the initial pH. • 6. The vials are closed with screw cap and kept for mixing using rotary tube shaker for 24 h. Note: The vials are observed at frequent intervals and if the solution is clear, further amount of Milrinone is added to make a saturated solution.

HFpEF patients [3] = details: cited from earlier work; remark: listed apart in the source
HFpEF patients [4] = details: cited from earlier work; remark: listed apart in the source

CCCc1nn(C)c2c(=O)[nH]c(-c3cc(S(=O)(=O)N4CCN(C)CC4)ccc3OCC)nc12 [sildenafil]
Exercise capacity or clinical status (HFpEF patients [1]): did not result in improvement

C[C@H]1O[C@@H](O[C@H]2[C@@H](O)C[C@H](O[C@H]3[C@@H](O)C[C@H](O[C@H]4CC[C@@]5(C)[C@H](CC[C@@H]6[C@@H]5C[C@@H](O)[C@]5(C)[C@@H](C7=CC(=O)OC7)CC[C@]65O)C4)O[C@@H]3C)O[C@@H]2C)C[C@H](O)[C@@H]1O [digoxin]
Benefit as therapy for HFpEF (HFpEF): little or no conclusive benefit

Cc1[nH]c(=O)c(C#N)cc1-c1ccncc1 [Milrinone, 1,2-dihydro-3-cyano-6-methyl-5-(4-pyridinyl)-2(1H)-pyridinone]
Solubility as a function of pH (in words) [2]: highly soluble in acidic pH

COc1ccccc1OCC(O)CN1CCN(CC(=O)Nc2c(C)cccc2C)CC1 (stereo not drawn) [Ranolazine]
Echocardiographic parameters or exercise performance (HFpEF patients [3]): did not result in a change

CC(=O)S[C@@H]1CC2=CC(=O)CC[C@]2(C)[C@H]2CC[C@@]3(C)[C@@H](CC[C@@]34CCC(=O)O4)[C@H]12 [spironolactone]
Left ventricular diastolic function (HFpEF patients [4]): improved left ventricular diastolic function
Maximal exercise capacity, patient symptoms or quality of life (HFpEF patients [4]): did not affect
